ChEMBL document CHEMBL1126455, “Syntheses of new metabolically stabilized TXA2/PGH2-receptor antagonists and their biological properties” (1992)

Experiments:
Homo sapiens = organism: Homo sapiens; assay: Potency of was determined relative to the SQ 29548 by inhibition of aggregation of human platelet rich plasma induced by 10*-6 M U 46619; type: functional
[1] = target: T1, Thromboxane A2 receptor (Homo sapiens) (UniProt P21731); assay: Competition factor for Thromboxane A2 receptor/Prostaglandin H2 receptor was determined by CF=(ID50-test)/(ID50-standard)
T1 sequence (whole entry): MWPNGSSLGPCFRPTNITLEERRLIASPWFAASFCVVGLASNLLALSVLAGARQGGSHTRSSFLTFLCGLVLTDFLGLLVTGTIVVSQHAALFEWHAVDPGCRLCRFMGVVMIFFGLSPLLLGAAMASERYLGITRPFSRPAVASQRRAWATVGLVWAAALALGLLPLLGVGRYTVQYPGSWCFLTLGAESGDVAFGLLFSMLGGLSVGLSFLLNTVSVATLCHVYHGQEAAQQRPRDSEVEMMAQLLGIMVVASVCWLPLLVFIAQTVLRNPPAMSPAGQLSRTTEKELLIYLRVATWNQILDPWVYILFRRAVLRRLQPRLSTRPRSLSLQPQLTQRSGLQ

Compound | CF [1] | Potency (Homo sapiens)
O=C(O)CCC/C=C\C[C@H]1[C@H](CNS(=O)(=O)c2ccc(Cl)c(Cl)c2)C2CC1(c1ccc(F)cc1)CO2 (some centres not stated) | 0.5 | 0.01
O=C(O)COCCCC[C@H]1[C@H](CNS(=O)(=O)c2ccc(F)cc2)C2CC1(c1ccc(F)cc1)CO2 (some centres not stated) | 0.5 | 0.08
Cc1ccc(S(=O)(=O)N[C@@H]2C3CC(c4ccc(F)cc4)(CO3)[C@H]2C/C=C\CCCC(=O)O)cc1 (some centres not stated) | 45 | 0.001
O=C(O)CCC/C=C\C[C@H]1[C@H](CNS(=O)(=O)c2ccc(F)cc2)C2CC1(c1ccc(F)cc1)CO2 (some centres not stated) | 0.3 | 0.03
O=C(O)CCC/C=C\C[C@H]1[C@H](NS(=O)(=O)c2ccc(F)cc2)C2CC1(c1ccc(F)cc1)CO2 (some centres not stated) | 120 | 0.0004
O=C(O)COCCCC[C@H]1[C@H](CNS(=O)(=O)c2ccc(Cl)c(Cl)c2)C2CC1(c1ccc(F)cc1)CO2 (some centres not stated) | 0.4 | 0.08
Cc1ccc(S(=O)(=O)N[C@@H]2C3CC(c4ccc(F)cc4)(CO3)[C@H]2CCCCOCC(=O)O)cc1 (some centres not stated) | 27 | 0.003

Second part, led by results:

CF [1] | Compound | Potency (Homo sapiens)
0.2 | O=C(O)CCC/C=C\C[C@H]1[C@H](CNS(=O)(=O)c2ccc(Cl)cc2)C2CC1(c1ccc(F)cc1)CO2 (some centres not stated) | 0.01
0.1 | O=C(O)COCCCC[C@H]1[C@H](CNS(=O)(=O)c2ccc(Cl)cc2)C2CC1(c1ccc(F)cc1)CO2 (some centres not stated) | 0.08
400 | O=C(O)COCC=CC[C@H]1[C@H](NS(=O)(=O)c2ccc(F)cc2)C2CC1(c1ccc(F)cc1)CO2 (some centres not stated) | 0.003
0.4 | Cc1ccc(S(=O)(=O)NC[C@@H]2C3CC(c4ccc(F)cc4)(CO3)[C@H]2CCCCOCC(=O)O)cc1 (some centres not stated) | 0.03
0.4 | Cc1ccc(S(=O)(=O)NC[C@@H]2C3CC(c4ccc(F)cc4)(CO3)[C@H]2C/C=C\CCCC(=O)O)cc1 (some centres not stated) | 0.01
12 | O=C(O)CCCCCC[C@H]1[C@H](CNS(=O)(=O)c2ccc(Cl)c(Cl)c2)C2CC1(c1ccc(-c3ccccc3)cc1)CO2 (some centres not stated) | 0.01
170 | Cc1ccc(S(=O)(=O)N[C@@H]2C3CC(c4ccc(F)cc4)(CO3)[C@H]2C/C=C\COCC(=O)O)cc1 (some centres not stated) | 0.003
3 | O=C(O)COCCCC[C@H]1[C@H](CNS(=O)(=O)c2ccc(Cl)c(Cl)c2)C2CC1(c1ccc(-c3ccccc3)cc1)CO2 (some centres not stated) | 0.03
4.2 | O=C(O)CCC/C=C\C[C@H]1[C@H](CNS(=O)(=O)c2ccc(Cl)c(Cl)c2)C2CC1(c1ccc(-c3ccccc3)cc1)CO2 (some centres not stated) | 0.01
